The source of these data is ChEMBL document CHEMBL1201862, “PubChem BioAssay data set” (2004).

Assay [1] in a line: Trypanosoma cruzi growth suppression in host cells – NIH3T3 host cells, beta-gal luminescence, confirmation (AID 2044).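 Further: intracellular parasites grown in NIH/3T3 mouse fibroblasts as host cells; luminescent beta-galactosidase reporter signal from transgenic T. cruzi replicating inside host cells; inhibitors lower the luminescence signal.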 The class given is functional, cell-based.
Assay [2] deals with T1, Insulin-degrading enzyme (Homo sapiens, UniProt P14735).
T1 sequence (P14735 whole entry): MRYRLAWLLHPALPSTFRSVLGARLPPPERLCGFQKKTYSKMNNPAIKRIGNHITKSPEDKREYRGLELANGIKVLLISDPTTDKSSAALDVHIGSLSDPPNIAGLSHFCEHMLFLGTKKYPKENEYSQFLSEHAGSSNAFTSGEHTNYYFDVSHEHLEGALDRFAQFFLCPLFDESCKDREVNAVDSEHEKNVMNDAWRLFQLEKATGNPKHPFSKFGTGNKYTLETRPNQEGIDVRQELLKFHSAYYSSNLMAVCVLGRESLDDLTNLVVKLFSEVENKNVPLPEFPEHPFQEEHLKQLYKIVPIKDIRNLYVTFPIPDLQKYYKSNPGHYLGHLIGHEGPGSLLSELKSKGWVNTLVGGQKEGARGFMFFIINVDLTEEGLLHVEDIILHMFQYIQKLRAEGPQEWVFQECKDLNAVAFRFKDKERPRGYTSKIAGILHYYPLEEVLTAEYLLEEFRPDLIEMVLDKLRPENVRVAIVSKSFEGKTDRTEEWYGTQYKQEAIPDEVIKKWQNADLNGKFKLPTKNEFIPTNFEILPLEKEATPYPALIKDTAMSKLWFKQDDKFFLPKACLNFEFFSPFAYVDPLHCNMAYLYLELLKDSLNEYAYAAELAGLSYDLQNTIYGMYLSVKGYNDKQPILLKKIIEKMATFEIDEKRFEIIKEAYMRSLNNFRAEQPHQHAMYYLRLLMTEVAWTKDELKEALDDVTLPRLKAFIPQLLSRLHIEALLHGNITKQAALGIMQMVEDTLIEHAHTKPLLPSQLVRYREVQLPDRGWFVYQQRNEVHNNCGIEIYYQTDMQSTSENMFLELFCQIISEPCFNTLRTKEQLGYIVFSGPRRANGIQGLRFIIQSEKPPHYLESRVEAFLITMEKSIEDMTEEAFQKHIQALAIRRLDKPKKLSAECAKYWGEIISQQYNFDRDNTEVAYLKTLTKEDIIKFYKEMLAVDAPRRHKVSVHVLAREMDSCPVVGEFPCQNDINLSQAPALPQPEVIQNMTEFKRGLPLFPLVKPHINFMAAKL
As to the kind of experiment: cellular IDE activation of Abeta substrate cleavage – fluorescence polarization, HEK cells, dose response (AID 588439). It counts as functional, cell-based. Background: Polarisation of emitted light reports the rotation of a fluorescent probe.

Assay [3] relates to Vero. As to the kind of experiment: mammalian cell viability reduction – secondary assay, cytotoxicity control for West Nile virus antiviral project, dose response (AID 1650). Particulars: Chlorocebus sabaeus. The class given is functional.
Assay [4] relates to HEK293. As to the kind of experiment: membrane integrity loss in HEK cells – cell-based, fluorescence, cytotoxicity control for IDE activator project, dose response (AID 588440).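 Further: cytotoxicity by LDH release measuring loss of membrane integrity.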 Particulars: Homo sapiens. The class given is functional.
Assay [5] concerns HEK293. As to the kind of experiment: optical interference in Abeta FP readout, dose response, artefact control for IDE activator project, biochemical, fluorescence polarization (AID 588442). Particulars: Homo sapiens. It counts as functional, cell-based.
Assay [6] addresses T1, Insulin-degrading enzyme. In words: recombinant IDE activation, cell-free – biochemical, fluorescence polarization, counter-screen for IDE activator project, dose response (AID 588681).
A short description of assay [7]: NIH3T3 cell viability loss – ATP luminescence, mouse fibroblasts, counter-screen, dose response (AID 2010).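 Further: cells exposed to compound for about 90 hours before reading.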 The class given is functional, cell-based. In general terms: The purpose of a counterscreen is to sort out artefacts and off-target activity.
Assay [8] concerns the target Ras and Rab interactor 1/Tyrosine-protein kinase ABL1 (Homo sapiens, UniProt P00519+Q13671). The class given is functional.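 Further: biochemical TR-FRET dose-response test measuring inhibition of binding between Rin1 and Abl proteins.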
Assay [9] addresses T2, Sentrin-specific protease 7 (Homo sapiens, UniProt Q9BQF6).
T2 sequence (Q9BQF6 whole entry): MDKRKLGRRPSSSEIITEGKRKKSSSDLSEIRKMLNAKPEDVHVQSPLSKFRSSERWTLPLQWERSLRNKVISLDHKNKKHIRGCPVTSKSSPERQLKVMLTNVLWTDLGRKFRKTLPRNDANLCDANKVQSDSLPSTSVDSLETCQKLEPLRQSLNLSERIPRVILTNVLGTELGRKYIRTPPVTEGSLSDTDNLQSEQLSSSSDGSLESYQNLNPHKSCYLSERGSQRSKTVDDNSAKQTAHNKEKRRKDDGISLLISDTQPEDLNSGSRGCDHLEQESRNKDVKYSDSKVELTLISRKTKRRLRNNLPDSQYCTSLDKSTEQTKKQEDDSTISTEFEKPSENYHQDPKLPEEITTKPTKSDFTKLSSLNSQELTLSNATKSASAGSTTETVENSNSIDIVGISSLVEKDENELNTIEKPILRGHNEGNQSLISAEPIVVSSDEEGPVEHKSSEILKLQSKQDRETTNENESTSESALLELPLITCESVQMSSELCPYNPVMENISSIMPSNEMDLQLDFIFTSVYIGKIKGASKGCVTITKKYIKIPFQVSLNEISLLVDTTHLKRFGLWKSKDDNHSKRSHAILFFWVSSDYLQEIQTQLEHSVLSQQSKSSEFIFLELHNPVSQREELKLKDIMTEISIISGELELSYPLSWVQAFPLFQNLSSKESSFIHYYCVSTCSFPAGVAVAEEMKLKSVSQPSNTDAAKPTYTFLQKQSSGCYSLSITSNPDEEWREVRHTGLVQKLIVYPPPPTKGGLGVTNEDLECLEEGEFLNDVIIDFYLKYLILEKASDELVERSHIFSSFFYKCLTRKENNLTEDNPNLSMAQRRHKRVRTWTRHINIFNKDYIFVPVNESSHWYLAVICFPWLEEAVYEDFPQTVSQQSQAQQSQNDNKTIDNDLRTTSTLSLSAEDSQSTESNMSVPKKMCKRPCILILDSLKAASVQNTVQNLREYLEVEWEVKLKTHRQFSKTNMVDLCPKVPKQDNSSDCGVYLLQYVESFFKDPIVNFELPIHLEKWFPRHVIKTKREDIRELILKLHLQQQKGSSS
In words: inhibition of human SENP7 cleavage activity – biochemical, luminescence, SAR follow-up (AID 504497). The class given is functional.

Assay [10] concerns the target T3, Sentrin-specific protease 8 (Homo sapiens, UniProt Q96LD8).
T3 sequence (Q96LD8 whole entry): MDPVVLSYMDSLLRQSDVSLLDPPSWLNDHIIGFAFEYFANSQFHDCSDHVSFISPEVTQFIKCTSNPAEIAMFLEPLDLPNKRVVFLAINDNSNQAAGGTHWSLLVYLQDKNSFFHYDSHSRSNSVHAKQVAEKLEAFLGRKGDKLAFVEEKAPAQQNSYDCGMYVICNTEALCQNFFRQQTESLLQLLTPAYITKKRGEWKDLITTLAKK
As to the kind of experiment: inhibition of sentrin protease 8 – biochemical, luminescence, set 2, SAR follow-up (AID 588601). It counts as functional.

The target in assay [11] is T4, Sentrin-specific protease 6 (Homo sapiens, UniProt Q9GZR1).
T4 sequence (Q9GZR1 whole entry): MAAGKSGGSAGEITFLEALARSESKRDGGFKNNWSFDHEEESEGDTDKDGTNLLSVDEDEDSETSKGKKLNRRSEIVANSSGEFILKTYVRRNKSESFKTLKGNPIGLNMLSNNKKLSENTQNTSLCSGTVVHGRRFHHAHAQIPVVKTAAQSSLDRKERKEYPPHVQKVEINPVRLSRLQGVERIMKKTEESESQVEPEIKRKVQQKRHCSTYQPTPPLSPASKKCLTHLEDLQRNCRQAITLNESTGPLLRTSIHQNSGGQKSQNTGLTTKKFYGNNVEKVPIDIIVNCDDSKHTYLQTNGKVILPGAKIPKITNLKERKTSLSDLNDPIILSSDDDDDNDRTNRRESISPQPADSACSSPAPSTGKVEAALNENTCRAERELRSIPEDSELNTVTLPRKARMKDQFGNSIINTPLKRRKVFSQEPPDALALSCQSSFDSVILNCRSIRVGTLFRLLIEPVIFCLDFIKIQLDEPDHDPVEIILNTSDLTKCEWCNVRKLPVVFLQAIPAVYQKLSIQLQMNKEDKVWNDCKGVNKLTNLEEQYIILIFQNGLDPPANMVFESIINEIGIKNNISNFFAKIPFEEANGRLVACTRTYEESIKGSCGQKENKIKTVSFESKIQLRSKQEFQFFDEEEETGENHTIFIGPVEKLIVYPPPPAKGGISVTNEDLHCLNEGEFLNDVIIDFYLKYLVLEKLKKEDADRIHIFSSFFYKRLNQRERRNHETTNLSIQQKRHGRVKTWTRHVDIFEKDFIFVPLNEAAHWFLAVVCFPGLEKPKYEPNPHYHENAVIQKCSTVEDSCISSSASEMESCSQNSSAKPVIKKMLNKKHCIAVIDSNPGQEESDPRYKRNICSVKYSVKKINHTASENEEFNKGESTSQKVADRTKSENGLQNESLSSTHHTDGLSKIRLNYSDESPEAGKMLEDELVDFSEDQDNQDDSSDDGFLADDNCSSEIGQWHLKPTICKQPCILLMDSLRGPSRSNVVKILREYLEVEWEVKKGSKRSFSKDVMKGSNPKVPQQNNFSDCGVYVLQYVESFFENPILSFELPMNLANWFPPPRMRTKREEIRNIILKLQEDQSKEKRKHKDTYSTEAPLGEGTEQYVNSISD
As to the kind of experiment: inhibition of human SENP6 catalytic domain – biochemical, luminescence, set 2, SAR follow-up (AID 588598). It counts as functional.

Assay [12] addresses T2, Sentrin-specific protease 7. In words: inhibition of human SENP7 cleavage activity – biochemical, luminescence, set 2, SAR follow-up (AID 588600). It counts as functional.
Assay [13] addresses T5, Caspase-3 (Homo sapiens, UniProt P42574).
T5 sequence (P42574 whole entry): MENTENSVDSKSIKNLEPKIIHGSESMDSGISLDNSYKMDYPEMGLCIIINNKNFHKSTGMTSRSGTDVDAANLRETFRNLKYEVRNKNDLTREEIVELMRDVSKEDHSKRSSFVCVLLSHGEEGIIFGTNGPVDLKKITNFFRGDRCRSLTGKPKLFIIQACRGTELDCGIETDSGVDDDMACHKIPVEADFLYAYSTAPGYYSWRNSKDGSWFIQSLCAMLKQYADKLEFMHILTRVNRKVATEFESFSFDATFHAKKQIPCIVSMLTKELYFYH
In words: inhibition of recombinant caspase-3 activity – biochemical, luminescence, set 2, selectivity assay for SENP protease inhibitor project, SAR follow-up (AID 588599). It counts as functional.

For assay [14], the target named is T5, Caspase-3. In words: SAR Analysis of small molecule inhibitors of Sentrin-specific proteases (SENPs) using a Caspase-3 Selectivity assay. [Related pubchem assays (depositor defined):AID2540, AID2599, AID434973, AID489001]. The class given is functional.
The target in assay [15] is T3, Sentrin-specific protease 8. As to the kind of experiment: inhibition of human SENP8 cleavage activity – biochemical, luminescence, SAR follow-up (AID 504501). It counts as functional.
The target in assay [16] is T4, Sentrin-specific protease 6. As to the kind of experiment: SAR Analysis of small molecule inhibitors of Sentrin-specific protease 6 (SENP6) using a Luminescent assay. [Related pubchem assays (depositor defined):AID2582, AID2599]. The class given is functional.
Assay [17] addresses T6, Neuropeptides B/W receptor type 1 (Homo sapiens, UniProt P48145).
T6 sequence (P48145 whole entry): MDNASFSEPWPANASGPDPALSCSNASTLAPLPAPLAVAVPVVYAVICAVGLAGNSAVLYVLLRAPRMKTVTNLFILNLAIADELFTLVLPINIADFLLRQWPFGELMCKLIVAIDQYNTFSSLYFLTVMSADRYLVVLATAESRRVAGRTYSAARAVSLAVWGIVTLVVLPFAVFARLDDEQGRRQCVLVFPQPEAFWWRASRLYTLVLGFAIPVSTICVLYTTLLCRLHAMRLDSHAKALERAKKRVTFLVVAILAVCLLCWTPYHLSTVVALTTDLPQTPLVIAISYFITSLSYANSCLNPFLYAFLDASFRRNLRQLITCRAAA
In words: human NPBW1 receptor blockade, IC50 – cell-based, fluorescence, dose response, set 6, late-stage follow-up (AID 588583). It counts as functional.

The target of assay [18] is Melanin-concentrating hormone receptor 1 (Homo sapiens, UniProt Q99705). In words: Late-stage fluorescence-based counterscreen for antagonists of the G-protein coupled receptor 7 (GPR7): cell-based dose response assay to identify antagonists of the melanin-concentrating hormone receptor 1 (MCHR1) Set 6. It counts as functional.
Chain of Melanin-concentrating hormone receptor 1 (Q99705 whole entry): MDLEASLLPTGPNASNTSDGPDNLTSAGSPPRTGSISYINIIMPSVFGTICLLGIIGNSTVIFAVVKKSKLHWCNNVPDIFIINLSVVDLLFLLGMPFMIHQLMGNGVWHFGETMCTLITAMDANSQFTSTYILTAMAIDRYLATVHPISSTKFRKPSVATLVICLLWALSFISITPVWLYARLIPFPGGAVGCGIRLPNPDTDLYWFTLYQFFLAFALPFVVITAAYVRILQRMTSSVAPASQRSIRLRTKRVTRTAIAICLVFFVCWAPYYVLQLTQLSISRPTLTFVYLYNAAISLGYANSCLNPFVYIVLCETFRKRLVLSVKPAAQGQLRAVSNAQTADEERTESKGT

Activity calls are given as the source filed them.

Usually EC50 stands for the concentration needed to bring the measured effect to its halfway point. In general, CC50 refers to the concentration at which the toxic effect on the cells reaches its halfway point. Broadly, the IC50 is the concentration needed to halve the response being measured.

Chain of Ras and Rab interactor 1/Tyrosine-protein kinase ABL1 (P00519 whole entry): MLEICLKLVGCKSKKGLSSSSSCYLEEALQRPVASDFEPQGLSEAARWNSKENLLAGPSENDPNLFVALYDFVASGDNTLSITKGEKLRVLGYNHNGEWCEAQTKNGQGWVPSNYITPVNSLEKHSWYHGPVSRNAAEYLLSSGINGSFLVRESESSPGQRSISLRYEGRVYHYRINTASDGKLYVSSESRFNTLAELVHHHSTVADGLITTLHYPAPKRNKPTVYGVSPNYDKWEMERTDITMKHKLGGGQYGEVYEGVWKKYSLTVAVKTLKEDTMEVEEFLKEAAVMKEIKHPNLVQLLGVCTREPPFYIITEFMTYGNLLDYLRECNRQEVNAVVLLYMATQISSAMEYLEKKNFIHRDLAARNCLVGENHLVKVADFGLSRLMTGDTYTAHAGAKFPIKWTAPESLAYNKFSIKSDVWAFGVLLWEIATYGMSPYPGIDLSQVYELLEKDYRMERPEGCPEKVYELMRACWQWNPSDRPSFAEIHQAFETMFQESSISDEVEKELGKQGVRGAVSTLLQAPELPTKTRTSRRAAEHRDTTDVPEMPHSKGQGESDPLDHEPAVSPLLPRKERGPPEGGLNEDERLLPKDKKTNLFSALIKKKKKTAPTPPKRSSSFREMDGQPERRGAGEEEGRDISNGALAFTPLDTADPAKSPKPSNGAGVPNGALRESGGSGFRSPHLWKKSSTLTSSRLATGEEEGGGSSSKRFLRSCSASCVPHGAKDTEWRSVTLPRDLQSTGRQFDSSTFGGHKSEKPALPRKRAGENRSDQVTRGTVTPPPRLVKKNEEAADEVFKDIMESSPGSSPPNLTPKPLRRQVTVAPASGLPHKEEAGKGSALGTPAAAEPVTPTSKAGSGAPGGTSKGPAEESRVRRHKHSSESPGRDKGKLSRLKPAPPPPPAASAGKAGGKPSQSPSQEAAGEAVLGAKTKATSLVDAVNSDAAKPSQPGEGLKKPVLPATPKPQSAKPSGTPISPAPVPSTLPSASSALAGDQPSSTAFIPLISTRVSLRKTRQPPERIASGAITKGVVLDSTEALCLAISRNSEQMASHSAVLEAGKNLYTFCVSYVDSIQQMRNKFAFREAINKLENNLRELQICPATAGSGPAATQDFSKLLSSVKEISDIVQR
Chain of Ras and Rab interactor 1/Tyrosine-protein kinase ABL1 (Q13671 whole entry): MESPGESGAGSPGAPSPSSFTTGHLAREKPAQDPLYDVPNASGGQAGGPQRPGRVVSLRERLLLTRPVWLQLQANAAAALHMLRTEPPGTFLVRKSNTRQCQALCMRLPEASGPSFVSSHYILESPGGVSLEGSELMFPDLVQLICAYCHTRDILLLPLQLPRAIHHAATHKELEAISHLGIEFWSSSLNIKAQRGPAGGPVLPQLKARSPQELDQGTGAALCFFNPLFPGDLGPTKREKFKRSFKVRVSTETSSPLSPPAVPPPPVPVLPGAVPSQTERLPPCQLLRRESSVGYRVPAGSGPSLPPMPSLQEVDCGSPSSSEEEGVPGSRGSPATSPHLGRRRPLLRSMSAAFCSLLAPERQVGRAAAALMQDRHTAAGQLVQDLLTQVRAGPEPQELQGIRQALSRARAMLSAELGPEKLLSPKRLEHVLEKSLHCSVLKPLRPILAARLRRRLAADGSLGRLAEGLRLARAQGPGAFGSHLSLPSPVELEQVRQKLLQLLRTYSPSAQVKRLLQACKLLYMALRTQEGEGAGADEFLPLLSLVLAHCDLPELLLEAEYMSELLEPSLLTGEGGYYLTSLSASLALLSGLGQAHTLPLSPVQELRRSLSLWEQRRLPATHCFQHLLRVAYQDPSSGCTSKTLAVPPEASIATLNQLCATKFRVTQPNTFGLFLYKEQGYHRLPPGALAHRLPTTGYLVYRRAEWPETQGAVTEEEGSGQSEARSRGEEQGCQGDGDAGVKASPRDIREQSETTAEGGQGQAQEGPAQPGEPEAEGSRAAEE

As for `CCN1CCN(c2cc(C)c3cc(NC(=S)N4CCN(c5ccccc5)CC4)ccc3n2)CC1`, the EC50 in assay [1] is 1.79 µM (active); in assay [2] it was > 54.7 µM (inactive); in assay [5], > 54.7 µM (inactive); in [6], > 54.7 µM (inactive); in [7] it was > 60 µM (not active). Besides, in assay [3], the CC50 is 19.5 µM (active). Also, the IC50 in assay [4] is > 89.2 µM (inactive).
`O=C(CC1SCCNC1=O)Nc1cc(Cl)cc(Cl)c1` (centres undefined): the IC50 in assay [8] was 26.4 µM (inactive).
Take `O=C(Nc1nc2ccccc2s1)c1nccs1`: the IC50 in [9] is 1.4 µM (active); in assay [10], 1.55 µM (active); in [11], 1.49 µM (active); in [12] it was 1.54 µM (active); in assay [13], 1.01 µM (active); in assay [14] it was 0.9 µM (active). For the same molecule, the half-inhibitory concentration (IC50) in [15] and in assay [16] was 2.1 µM (active) each time.
As to `CCN(C(=O)c1cc(S(=O)(=O)N(CC)CC)ccc1C)c1nc2ccccc2s1`, the IC50 in assay [10], in [11], in assay [12] and in [13] was > 99 µM (inactive) in each case.
With `Cc1cc(C(C#N)c2c(Cl)cnn(Cc3cccc4ccccc34)c2=O)on1` (centres undefined), the IC50 in assay [17] and in assay [18] was 0.136 µM (active) each time.
For the molecule `O=c1c(-c2ccccc2)c(Br)cnn1Cc1cccc2ccccc12`, the IC50 in assay [17] and in assay [18] was 12 µM (inactive) each time.
